The target in one series is T1, human TGR5 receptor (Homo sapiens, UniProt Q8TDU6).
T1 construct: host or cells: CHO-K1 (hTGR5-CHO cells)
T1 sequence (Q8TDU6 1-330): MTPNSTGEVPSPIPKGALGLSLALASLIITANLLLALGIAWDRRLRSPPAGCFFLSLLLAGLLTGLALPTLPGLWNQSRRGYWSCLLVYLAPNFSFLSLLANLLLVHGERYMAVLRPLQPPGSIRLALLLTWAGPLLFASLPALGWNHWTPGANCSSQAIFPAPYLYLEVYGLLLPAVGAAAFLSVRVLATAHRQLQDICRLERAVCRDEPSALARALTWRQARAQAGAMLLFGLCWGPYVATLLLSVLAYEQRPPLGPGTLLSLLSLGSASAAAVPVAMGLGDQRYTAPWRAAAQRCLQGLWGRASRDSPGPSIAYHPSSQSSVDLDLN
The series can be described thus: Human TGR5 cAMP production assay. As to conditions: human TGR5, luminescent cAMP assay; coded A-D; read-out: Human TGR5 Lum. cAMP Activity (EC50). The series is classed as cell-based. The gist of the method:
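Intracellular cAMP read by luminescent enzyme-complementation (XS+) after overnight development, following 1 h room-temperature compound treatment of hTGR5-CHO-K1 cells in IBMX plus anti-cAMP antibody. Compounds tested as half-log dilution series; EC50 derived.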
For orientation: Cyclic AMP is a second messenger, typically raised through Gs and lowered through Gi signalling.

The target in series [1] is T2, mouse TGR5 receptor (Mus musculus, UniProt Q80SS6).
T2 construct: expressed in transfected cells; host or cells: HEK293-EBNA (293 c18, ATCC CRL10852), Hygromycin B selection
T2 sequence (Q80SS6 1-329): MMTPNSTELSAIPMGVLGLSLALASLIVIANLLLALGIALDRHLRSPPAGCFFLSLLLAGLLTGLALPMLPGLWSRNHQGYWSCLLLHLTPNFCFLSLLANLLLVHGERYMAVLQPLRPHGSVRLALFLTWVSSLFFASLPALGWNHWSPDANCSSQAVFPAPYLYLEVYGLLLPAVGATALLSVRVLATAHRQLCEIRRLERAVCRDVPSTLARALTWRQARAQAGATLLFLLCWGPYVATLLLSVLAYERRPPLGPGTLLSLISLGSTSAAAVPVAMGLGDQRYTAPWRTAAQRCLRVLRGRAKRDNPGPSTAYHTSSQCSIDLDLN
Briefly: Mouse TGR5 cAMP production assay (HTRF, Cisbio cAMP HiRange). As to conditions: HEK293-EBNA cells overexpressing mouse TGR5, HTRF cAMP HiRange; coded A-D. The series is classed as cell-based. In a few lines:
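cAMP read by HTRF competition after 1 h room-temperature compound exposure of mouse TGR5-overexpressing HEK293-EBNA cells. Cells were suspended in serum-free DMEM containing 500 μM IBMX; compounds ran as 12-point half-log dilutions in duplicate; EC50 derived.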

A further series has as its system Mouse STC-1 cells. Briefly: STC-1 GLP-1 assay. The series is classed as cell-based. As to conditions: GLP-1 secretion, 2 h, coded A-C, read-out: Mouse STC-1 HTRF GLP-1 Activity (EC50). How it is done: We evaluated Compounds of the present invention for their ability to induce GLP-1 production in mouse intestinal neuroendocrine tumor cells. Mouse STC-1 cells were cultured and maintained in high glucose DMEM (Sigma #5796) supplemented with 15% horse serum, 5% Fetal Bovine Serum (FBS), 1% penicillin/streptomycin, and 2 mM L-alanine L-glutamine (GlutaMax). Two days prior to analysis of GLP-1 secretion cells were harvested using Accutase (Sigma), spun down then resuspended in high glucose DMEM media containing 2 mM L-alanine L-glutamine (GlutaMax), 10% charcoal-dextran stripped FBS, and 50 μg/mL Gentamicin, at a density of 100,000 cells/mL. 100 μL of cell suspension was added to each well of a 96-well Poly-D-Lysine coated culture plate (Sigma; cat #2382493) and was incubated at 37° C. with 5% CO2.
Compounds were initially diluted in 100% DMSO (12-point serial dilution by half logs) in a 96-well plate and then were further diluted 1:500 in Hanks' Balanced Salt Solution (HBSS) containing protease inhibitor cocktail, DPP-IV inhibitor, and 0.1% fatty acid free bovine serum albumin. On the day of the experiment cells were washed once with HBSS. After wash, 100 μL of test compound was added to each well. The plate was incubated at 37° C. with 5% CO2 for 2 h. Supernatants were collected and GLP-1 secretion was measured using the Cisbio™ Active GLP-1 HTRF Assay Kit (Cisbio). Briefly, Anti-GLP-1-d2 conjugate and Anti-GLP-1 Terbium Cryptate conjugate stock solutions were prepared as per kit instructions. The two solutions were pre-mixed and 10 μL were transferred to a 384-well low volume plate (Greiner; cat #784075). 10 μL of collected supernatants were added to wells already containing the conjugate solution. The plate was covered and incubated at room temperature overnight. The plate was read on an Envision™ plate reader (Perkin Elmer).
In Table 34, EC50 values obtained from the STC-1 GLP-1 production assay for compounds of the present invention are summarized.
In general terms: In TR-FRET formats the signal depends on donor and acceptor labels being close together.

For series [2], the target named is T2, mouse TGR5 receptor. Briefly: Mouse TGR5 cAMP production assay (luminescent, DiscoveRx cAMP XS+). The series is classed as cell-based. As to conditions: HEK293-EBNA cells overexpressing mouse TGR5, luminescent cAMP XS+; coded A-D; read-out: Mouse TGR5 Lum. cAMP Activity (EC50). The gist of the method:
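HEK293-EBNA cells stably expressing mouse TGR5 were suspended in serum-free DMEM with 500 μM IBMX and preincubated 20 min with cAMP antibody. They were then exposed to half-log compound dilutions for 1 h at room temperature. cAMP measured by enzyme-fragment complementation luminescence after overnight incubation; EC50 derived.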

A short description of series [3]: Absorption vs. first pass metabolism: Cmax with and without 1-aminobenzotriazole (ABT) pre-treatment. The series is classed as in vivo, mouse. As to conditions: ICR mice, ABT 150 mg/kg p.o. 2 h before; compound 10 mg/kg p.o. How it is done:
Absorption Vs. First Pass Metabolism
In this study, the absorption was examined as compared to first pass metabolism of the compounds of the present invention. ICR mice (Hilltop) were pre-treated with 1-aminobenzotriazole (ABT), a nonselective inhibitor of cytochrome P450 enzymes to inhibit Cyp450-mediated degradation of the compounds in liver.
ABT was administered at 150 mg/kg in 5 mL/kg of 0.04% ethanol in 0.5% methyl cellulose (w/v) by oral gavage, 2 hours prior to test compound administration. The compounds 20AA and 20AC were administered by oral gavage at 10 mg/kg in 10 mL/kg of 20% PEG400/80% (0.5% (w/v) CMC containing 0.25% (v/v) Tween 80) (v/v), 2 hours after the ABT treatment. Blood was collected via orbital bleeding at predose, 0.25, 0.5, 1, 2, and 4 hours post-dose and the quantification of compound levels in plasma was accomplished by means of LC-MS/MS analysis as described in Example 59. Reference compound “Propranolol” that is known to be metabolized by Cyp450 was used as a positive control.
FIG. 4 depicts the Cmax (nM) of the compounds of the present invention with and without ABT pre-treatment.

The structures appear in SMILES notation. pEC50: −log10 of the molar value.

In general, pEC50 refers to the negative decadic logarithm of the EC50, by convention in mol/L.

For the molecule `COc1cnccc1-c1cccc(C(C)(C)NS(=O)(=O)c2cccc(Cl)c2C)c1` [Compound 2BL], the pEC50 at human TGR5 receptor is greater than 7.00; on mouse TGR5 receptor [1], greater than 7.00; in the series with Mouse STC-1 cells, 6.00 to 7.00.

`CCOC(=O)CCCN(C(C)(C)c1cccc(-c2ccncc2C)c1)S(=O)(=O)c1ccccc1C(F)(F)F` [Compound 14A, Ethyl 4-(N-(2-(3-(3-methylpyridin-4-yl)phenyl)propan-2-yl)-2-(trifluoromethyl)phenylsulfonamido)butanoate]: the negative-log EC50 (pEC50) is greater than 7.00 at human TGR5 receptor, 6.00 to 7.00 on mouse TGR5 receptor [1] and 6.00 to 7.00 in the series with Mouse STC-1 cells.

For the molecule `COc1cnccc1-c1cccc([C@H](C)NS(=O)(=O)c2ccccc2C(F)(F)F)c1` [Compound 2BQ], the figures for the pEC50 on human TGR5 receptor, on mouse TGR5 receptor [2] and in the series on Mouse STC-1 cells were greater than 7.00, 6.00 to 7.00 and 4.52 to 6.00, respectively.

As for `CC(C)NCC(O)COc1cccc2ccccc12` (stereo not shown) [propranolol, Propranolol, reference compound], in series [3], the “Cmax with versus without ABT pre-treatment” value is listed as “significantly higher”.

Regarding `COc1cnccc1-c1cccc(C(C)(C)NS(=O)(=O)c2ccccc2C(F)(F)F)c1` [Compound 2AV], the negative-log EC50 (pEC50) at human TGR5 receptor is greater than 7.00; on mouse TGR5 receptor [2], 6.00 to 7.00; with Mouse STC-1 cells, 4.52 to 6.00.

Take `COCCN(C(C)(C)c1cccc(-c2ccncc2C)c1)S(=O)(=O)c1ccccc1C(F)(F)F` [Compound 13AA, N-(2-methoxyethyl)-N-(2-(3-(3-methylpyridin-4-yl)phenyl)propan-2-yl)-2-(trifluoromethyl)benzenesulfonamide]: the negative logarithm of the EC50 (pEC50) at human TGR5 receptor is greater than 7.00; on mouse TGR5 receptor [1], 6.00 to 7.00; with Mouse STC-1 cells, 6.00 to 7.00.

With `CC[C@H](NS(=O)(=O)c1ccccc1C(F)(F)F)c1cccc(-c2ccncc2C)c1` [Compound 5AW, (S)-N-(1-(3-(3-methylpyridin-4-yl)phenyl)propyl)-2-(trifluoromethyl)benzenesulfonamide], the figures for the negative-log EC50 (pEC50) at human TGR5 receptor, on mouse TGR5 receptor [1] and in the series on Mouse STC-1 cells were greater than 7.00, greater than 7.00 and 4.52 to 6.00, respectively.

For the molecule `COc1cnccc1-c1cccc(C(C)(C)NS(=O)(=O)c2ccccc2[N+](=O)[O-])c1` [Compound 2AU], the pEC50 on human TGR5 receptor is greater than 7.00; on mouse TGR5 receptor [2] it was greater than 7.00; in the series on Mouse STC-1 cells, 4.52 to 6.00.

Take `COc1cnccc1-c1cccc(C(C)(C)NS(=O)(=O)c2cccc(Cl)c2Cl)c1` [Compound 2BC]: the results for the negative-log EC50 (pEC50) on human TGR5 receptor, at mouse TGR5 receptor [1] and in the series with Mouse STC-1 cells were greater than 7.00, greater than 7.00 and 4.52 to 6.00, respectively.

Take `CCOc1cnccc1-c1cccc(C(C)(C)NS(=O)(=O)c2ccccc2C(F)(F)F)c1` [Compound 8AC, N-(2-(3-(3-ethoxypyridin-4-yl)phenyl)propan-2-yl)-2-(trifluoromethyl)benzenesulfonamide]: the negative logarithm of the EC50 (pEC50) was greater than 7.00 at human TGR5 receptor, 6.00 to 7.00 at mouse TGR5 receptor [2] and 6.00 to 7.00 in the series on Mouse STC-1 cells.

The values above are taken from patent publication US11236055B2 (Venenum Biodesign, LLC, priority 2016, dated 2022).
